Data reported in paper PMC13243568, “Massive barcode-free chemical screenings enable the discovery of bioactive macrocycles with passive membrane permeability” (Nature Communications, 2026).
Entries after “also recorded” stand apart in the source; their conditions may differ. Starred links: 1 amine or outer side, 2 acyl side, 3 side chain; linkers in the order of their positions; H or OH if unused. Positions of bridges follow the written chain, without caps; N, C: chain ends. Non-standard residues stand in square brackets, D forms with d. Residues, ends and D or L forms follow the SMILES beside them. *: point of attachment. Phenylacetyl(3,4,5-triOMe) = COc1cc(CC(=O)*)cc(OC)c1OC; Biotin = O=C1N[C@H]2[C@H](CS[C@H]2CCCCC(=O)*)N1; Benzoyl(4-SO2NH2) = NS(=O)(=O)c1ccc(C(=O)*)cc1; Tyr(3-Cl) = N[C@@H](Cc1ccc(O)c(Cl)c1)C(=O)O; X1 = O=C([C@H]1CC[C@@H](N[*:1])C1)[*:2]; oXylylene = c1ccc(C[*:2])c(C[*:1])c1; εLys = N[C@@H](CCCCN[*:1])C(=O)[*:2]

Columns and labels:
CAIX = molecular target: T1, CAIX (Homo sapiens, UniProt Q16790); assay: BLI direct binding assay against CAIX; settings: biotinylated hit immobilized on streptavidin sensor, CAIX in solution; curves did not reach saturation; read-out: kinetic KD (BLI)
T1 construct: Anhydrase IX (38-414), His,Avitag (CA9H82E3); His; Avitag (biotinylated); purchased ACROBiosystems CA9H82E3
Method: Biolayer interferometry (BLI) assays were performed in 96-well plates (GreinerBio-One, polypropylene, flat-bottom, chimney well) using an Octet R4 system (SATORIUS). Wells were filled with 200 μL of kinetic buffer, compound solution or protein solution, purified compounds. Proteins were dissolved in the appropriate kinetic buffer specific for each target (CAIX: 1× PBS, 0.02% Tween-20, 1 mg/mL BSA [0.1% w/v]; WDR5: 20 mM Tris, 500 mM NaCl, pH 8.0, 0.02% Tween-20, and 1 mg/mL BSA [0.1% w/v]).
Purified biotinylated compounds were dissolved in an appropriate kinetic buffer and immobilized onto the streptavidin biosensor for 60 s. Sensors were then dipped into the kinetic buffer for 60 s, a concentration gradient of protein solution for 300 s and into the kinetic buffer for 300 s. Measurements were carried out at 20 °C.
Table S2: ASMS buffer summary.
B Biotinylated CAIX (1.5 μM) in A Biotinylated WDR5 (1.5 μM) in A […]
μM d-biotin 0.02% Tween-20, 400 μM biotin
D 10% FBS, 1x PBS 20m mM Tris, 500 mM NaCl, pH 8, 10% FBS, E 10 fmol/member library in buffer D 10 fmol/member library in buffer D F 1x PBS 20m mM Tris, 500 mM NaCl, pH 8
G 6M Guanidine HCl, 200 mM phosphate 6M Guanidine HCl, 200 mM phosphate buffer, pH 6.8, 10 mM TCEP HCl buffer, pH 6.8, 10 mM TCEP HCl
Sample preparation after AS: Following the affinity selection, samples were desalted using StageTips. […]

WDR5-MLL PPI = molecular target: T2, WDR5-MLL PPI (Homo sapiens, UniProt P61964); assay: BLI competition assay, displacement of immobilized MLL peptide 16 from WDR5; assay type: binding; settings: for inhibition of WDR5-MLL interaction, in words: 100 nM inhibitor, MLL immobilized on BLI tips; for displacement of MLL peptide from WDR5: tested at 100 and 50 nM WDR5; for Binding (ratio to control): Figure S11, BLI competition, control = WDR5 without inhibitor
T2 construct: A truncated human WDR5 construct encoding amino acids 22–; SUMO (N); made in house; host or cells: E. coli BL21 (DE3) (WDR5); the peptide was made by chemical synthesis
Method: Purified biotinylated competitors were dissolved in the appropriate kinetic buffer and immobilized onto the streptavidin biosensors at 100 nM for 60 s. Sensors were then dipped into the kinetic buffer for 60 s, and the concentration gradient of macrocyclic hit in a constant concentration protein solution for 600 s. Measurements were carried out at 20 °C. […]
was immobilized for 60 sec. at 100 nM. […]
were reincubated and association was measured for 600 sec. […]
Biolayer interferometry (BLI): Biolayer interferometry (BLI) assays were performed in 96 well plates (GreinerBio -One, polypropylene, flat ‐bottom, chimney well) using an Octet R4 system (SATORIUS).
Wells were filled with 200 μL with kinetic buffer, compound solution or protein solution , purifi ed compounds . Proteins were dissolved in the appropriate kinetic buffer specific for each target (CAIX:
Tween -20, 1 mg/mL BSA [0.1% w/v]). […]
Measurements were carried out at 20 °C.
Competition assay: Purified biotinylated competitor were dissolved in appropriate kinetic buffer and immobilized onto the streptavidin biosensors at 100nM for 60s. Sensors were then dipped into kinetic buffer for 60 s and concentration gradient of macrocyclic hit in constant concentration protein solution for 600s. Measurements were carried out at 20 °C.

[1] = Parallel artificial membrane permeability assay (PAMPA); assay type: in vitro ADME
Method: The plate system consisted of a 96-well microwell plate (donor wells) and a 96-well insert containing a PVDF membrane coated with tri-layers of phospholipids (acceptor wells). Permeability was measured from the bottom plate (donor wells) to the top insert (acceptor wells). Cyclic peptide or reference compound solutions were prepared at a concentration of 100 μM in 1xPBS buffer (pH 7.4) containing 1% DMSO, and 300 μl of the resulting solutions was placed into the donor wells of the PAMPA plate. Acceptor wells were prepared by adding 200 μl of PBS buffer (pH 7.4) containing 1% DMSO. The insert was stacked onto the donor plate, and the system was covered with a lid to avoid evaporation. […] Additionally, 3:2 dilutions of the 100 μM cyclic peptide stocks were prepared in 1xPBS buffer (pH 7.4) containing 1% DMSO to yield a sample corresponding to the theoretical equilibrium between donor and acceptor wells. The samples were run on the UPLC–HRMS to measure the cyclic peptide concentration representing maximum permeability. […]
Parallel artificial membrane permeability assay (PAMPA):
Permeability measurements
The insert was then stacked onto the donor […]
concentration of permeated peptides. To establish a reference for maximum permeability, 3:2 […]
the theoretical equilibrium between the donor and acceptor chambers. These equilibrium samples […]
Permeability (%) = [PeptideAcceptor ] (4)
P = VD×VA × −ln (1 − [PeptideAcceptor] ) (5) […]

MV-4:11 cells = assay: Cell viability, CellTiter-Glo, MV-4:11; assay type: cell-based; settings: 72 h
Method: 5000 HL-60 (DSMZ ACC3), 3000 MV411 (DSMZ ACC554), and 7000 MOLM13 (DSMZ ACC554) cells were plated into an opaque-colored 96-well plate (Greiner Bio-One cat no 655083). […] About 100 μl CellTiter-Glo reagent was added to each well, and the plates were shaken for 5 min at 500 rpm. Luminescent signal was stabilized by incubating the plates for 10 min at RT. Luminescence was measured on the Victor X3 plate reader (Perkin Elmer).
were plated into an opaque colored 96 wells plate (Greiner Bio -one cat no 655083). Cells were plated
no G7570). 100 µl CellTiter-Glo reagent was added to each well and plates were shaken 5 minutes at 500 rpm. Luminescent signal was stabilized by incubating the plates 10 minutes at RT. Luminescence was measured on the Victor X3 plate reader (Perkin Elmer).

[2] = Serum stability assay in 25% human serum; settings: pH 7.4
Method: The mixture was vortexed immediately after protein addition. […] After incubating on ice for 1 h, the samples were centrifuged at 10,000×g for 5 min. The supernatant was then injected into the UPLC–HRMS (20 μL) and the AUC of both peptide and IS calculated by analyzing the XIC curve for each exact mass value. For each run and timepoint, the peptide AUC was then normalized to the IS AUC.
vortexed immediately after protein addition. At different time points, a sample was retrieved and the
degradation reaction was quenched by the addition of 20% trichloroacetic acid (w/w) in 1x PBS
After incubating on ice for 1h , the samples were centrifuged at
10,000 rpms for 5 min. The supernatant was then injected into the UPLC -HRMS and the AUC of both
peptide and IS by analyzing the XIC curve for each exact mass value. For each run and timepoint, the peptide AUC was then normalized to the IS AUC . The relative stability values were then plotted using
Half -life times (t 1/2) were
calculated at the intersection of the curve with y=50%.

## N=C(N)NCCC[C@@H]1NC(=O)[C@H](Cc2ccc(O)c(Cl)c2)NC(=O)[C@H](CCCCN)NC(=O)[C@@H](NC(=O)c2ccc(S(N)(=O)=O)cc2)CSSC[C@@H](C(=O)N[C@@H](CCCCN)C(=O)NCCCC[C@H](N)C(=O)NCCCC[C@H](N)C(=O)N[C@@H](CCCCNC(=O)CCCC[C@@H]2SC[C@@H]3NC(=O)N[C@@H]32)C(N)=O)NC1=O [Compound 7] ({Benzoyl(4-SO2NH2)}-CK[Tyr(3-Cl)]RCK[εLys][εLys]K(Biotin)-NH2; disulfide 1-5)
CAIX
  Kd: 1 nM

## COc1cc(CC(=O)N[C@H]2CSSC[C@@H](C(N)=O)NC(=O)[C@H](Cc3c[nH]c4ccccc34)NC(=O)[C@H](CCCNC(=N)N)NC(=O)[C@H]3CC[C@H](C3)NC2=O)cc(OC)c1OC [Compound 14] ({Phenylacetyl(3,4,5-triOMe)}-C[X1]RWC-NH2; disulfide 1-5; C-terminus assumed)
WDR5-MLL PPI; WDR5 50 nM
  inhibition of WDR5-MLL interaction, in words: maintains full activity; also recorded: no association was detected; also recorded: comparable inhibitory potency
WDR5-MLL PPI; 16 immobilized at 100 nM, WDR5 50 nM, lower detection limit 25 nM, read-out: IC50, inhibition of WDR5-MLL PPI (BLI competition)
  IC50: < 25 nM
[1]; PAMPA
  permeability (PAMPA): < 1%

## CC(=O)N[C@H]1CSSC[C@@H](C(N)=O)NC(=O)[C@H](Cc2c[nH]c3ccccc23)NC(=O)[C@H](CCCNC(=N)N)NC(=O)[C@H]2CC[C@H](C2)NC1=O [Compound 15] (Ac-C[X1]RWC-NH2; disulfide 1-5; C-terminus assumed)
WDR5-MLL PPI; WDR5 50 nM
  inhibition of WDR5-MLL interaction, in words: reduced (yet not abolished) activity; also recorded: maintained partial inhibitory activity

## COc1cc(CC(=O)N[C@H]2CSCc3ccccc3CSC[C@@H](C(N)=O)NC(=O)[C@H](Cc3c[nH]c4ccccc34)NC(=O)[C@H](CCCNC(=N)N)NC(=O)[C@H]3CC[C@H](C3)NC2=O)cc(OC)c1OC [Compound 17] ({Phenylacetyl(3,4,5-triOMe)}-C[X1]RWC-NH2; linker 1-5 via oXylylene; C-terminus assumed)
WDR5-MLL PPI; WDR5 50 nM
  inhibition of WDR5-MLL interaction, in words: retained strong inhibition potency

## COc1cc(CC(=O)N[C@H]2CSCc3ccccc3CSCCNC(=O)[C@H](Cc3c[nH]c4ccccc34)NC(=O)[C@H](CCCNC(=N)N)NC(=O)[C@H]3CC[C@H](C3)NC2=O)cc(OC)c1OC [Compound 17Δ]
MV-4:11 cells
  inhibition of MV-4:11 cell proliferation, in words: did not inhibit cancer cell proliferation
[1]; PAMPA
  Permeability (%): 17.17%
  permeability (PAMPA): 16%

## COc1cc(CC(=O)N[C@H]2CSCc3cccc(c3)CSCCNC(=O)[C@H](Cc3c[nH]c4ccccc34)NC(=O)[C@H](CCCNC(=N)N)NC(=O)[C@H]3CC[C@H](C3)NC2=O)cc(OC)c1OC [Compound 18Δ]
[1]; PAMPA
  permeability (PAMPA): 11%

## COc1cc(CC(=O)N[C@H]2CSCc3ccc(cc3)CSCCNC(=O)[C@H](Cc3c[nH]c4ccccc34)NC(=O)[C@H](CCCNC(=N)N)NC(=O)[C@H]3CC[C@H](C3)NC2=O)cc(OC)c1OC [Compound 19Δ]
[1]; PAMPA
  permeability (PAMPA): < 5%

## COc1cc(CC(=O)N[C@H]2CSCc3ccc(cc3)-c3ccc(cc3)CSCCNC(=O)[C@H](Cc3c[nH]c4ccccc34)NC(=O)[C@H](CCCNC(=N)N)NC(=O)[C@H]3CC[C@H](C3)NC2=O)cc(OC)c1OC [Compound 20Δ]
[1]; PAMPA
  permeability (PAMPA): < 5%

## N=C(N)NCCC[C@@H]1NC(=O)[C@H]2CC[C@H](C2)NC(=O)[C@@H](NC(=O)Cc2cc(F)c(F)cc2F)CSCc2ccccc2CSCCNC(=O)[C@H](Cc2c[nH]c3ccccc23)NC1=O [Compound 23]
WDR5-MLL PPI
  displacement of MLL peptide from WDR5: ≥ 50%
[1]; 100 µM, 18 h incubation, RT
  permeability (PAMPA): 45%

## N=C(N)NCCC[C@@H]1NC(=O)[C@H]2CC[C@H](C2)NC(=O)[C@@H](NC(=O)c2ccc(Cl)s2)CSCc2ccccc2CSCCNC(=O)[C@H](Cc2c[nH]c3ccccc23)NC1=O [Compound 25]
WDR5-MLL PPI
  displacement of MLL peptide from WDR5: ≥ 50%
[2]
  remaining at 24 h, 25 μM: > 50%
[1]; 100 µM, 18 h incubation, RT
  permeability (PAMPA): 51%

## N=C(N)NCCC[C@@H]1NC(=O)[C@H]2CC[C@H](C2)NC(=O)[C@@H](NC(=O)Cc2ccccc2Br)CSCc2ccccc2CSCCNC(=O)[C@H](Cc2c[nH]c3ccccc23)NC1=O [Compound 26]
WDR5-MLL PPI
  displacement of MLL peptide from WDR5: ≥ 50%

## CCCCCC(C)C(=O)N[C@H]1CSCc2ccccc2CSCCNC(=O)[C@H](Cc2c[nH]c3ccccc23)NC(=O)[C@H](CCCNC(=N)N)NC(=O)[C@H]2CC[C@H](C2)NC1=O (stereo partly shown) [Compound 27]
WDR5-MLL PPI
  displacement of MLL peptide from WDR5: ≥ 50%
[1]; 100 µM, 18 h incubation, RT
  permeability (PAMPA): 72%

## N=C(N)NCCC[C@@H]1NC(=O)[C@H]2CC[C@H](C2)NC(=O)[C@@H](NC(=O)CCc2ccc(Br)cc2)CSCc2ccccc2CSCCNC(=O)[C@H](Cc2c[nH]c3ccccc23)NC1=O [Compound 28]
WDR5-MLL PPI
  displacement of MLL peptide from WDR5: ≥ 50%

## COc1cc(CC(=O)N(C)[C@H]2CSCc3ccccc3CSCCNC(=O)[C@H](Cc3c[nH]c4ccccc34)NC(=O)[C@H](CCCNC(=N)N)NC(=O)[C@H]3CC[C@H](C3)NC2=O)cc(OC)c1OC [s5]
WDR5-MLL PPI
  Binding (ratio to control): 0.37
[1]; PAMPA
  passive permeability (PAMPA), in words: reduced permeability

## COc1cc(CC(=O)N[C@H]2CSCc3ccccc3CSCCNC(=O)[C@H](Cc3c[nH]c4ccccc34)N(C)C(=O)[C@H](CCCNC(=N)N)NC(=O)[C@H]3CC[C@H](C3)NC2=O)cc(OC)c1OC [s7]
WDR5-MLL PPI
  Binding (ratio to control): 0.83
[1]; PAMPA
  passive permeability (PAMPA), in words: reduced permeability
